Numbers after ± are expanded uncertainties.
Experiments:
[1] = 101 kPa, Liquid, Pycnometric method
[2] = refractive index (Na D-line) (dimensionless); details: 101.33 kPa, Liquid, Standard Abbe refractometry
[3] = relative permittivity at zero frequency (dimensionless); details: 101 kPa, Liquid, Coaxial cylinder capacitor
[4] = xn = mol fraction of the nth substance listed; details: 101 kPa, Liquid, Pycnometric method, x2 = 0
[5] = refractive index (Na D-line) (dimensionless); xn = mol fraction of the nth substance listed; details: 101 kPa, Liquid, Standard Abbe refractometry, x2 = 0
[6] = relative permittivity at zero frequency (dimensionless); xn = mol fraction of the nth substance listed; details: 101 kPa, Liquid, Coaxial cylinder capacitor, x2 = 0

CN(CCO)CCO [N-methyldiethanolamine]
Details | mass density, [1] [kg/m3] | refractive index, [2] | relative permittivity at zero frequency, [3]
293.15 K | 1041.6 ± 0.5 | 1.46935 ± 0.00037 | 22.9 ± 0.9
298.15 K | 1037.9 ± 0.5 | 1.46724 ± 0.00037 | 22.4 ± 0.9
303.15 K | 1034.1 ± 0.5 | 1.46532 ± 0.00037 | 21.8 ± 0.9
308.15 K | 1030.3 ± 0.5 | 1.4631 ± 0.00037 | 21.3 ± 0.9
313.15 K | 1026.5 ± 0.5 | 1.46074 ± 0.00037 | 20.8 ± 0.8
318.15 K | 1022.7 ± 0.5 | 1.45892 ± 0.00037 | 20.3 ± 0.8
323.15 K | 1018.9 ± 0.5 | 1.45708 ± 0.00037 | 19.8 ± 0.8
328.15 K | 1015 ± 0.5 | 1.45513 ± 0.00037 | 19.3 ± 0.8

O=S1(=O)CCCC1 [sulfolane]
Details | mass density, [1] [kg/m3] | refractive index, [2] | relative permittivity at zero frequency, [3]
293.15 K | 1270.8 ± 0.6 | 1.4854 ± 0.00037 | 44.5 ± 1.8
298.15 K | 1266.5 ± 0.6 | 1.4836 ± 0.00037 | 44 ± 1.8
303.15 K | 1262 ± 0.7 | 1.4814 ± 0.00037 | 43.4 ± 1.7
308.15 K | 1257.6 ± 0.7 | 1.4796 ± 0.00037 | 42.8 ± 1.7
313.15 K | 1253.2 ± 0.7 | 1.478 ± 0.00037 | 42.2 ± 1.7
318.15 K | 1248.7 ± 0.7 | 1.4762 ± 0.00037 | 41.6 ± 1.7
323.15 K | 1244.2 ± 0.7 | 1.4744 ± 0.00037 | 41.1 ± 1.6
328.15 K | 1240.3 ± 0.7 | 1.4726 ± 0.00037 | 40.4 ± 1.6

O=S1(=O)CCCC1 [sulfolane] + CN(CCO)CCO
Details | mass density, [4] [kg/m3] | refractive index, [5] | relative permittivity at zero frequency, [6]
293.15 K | 1270.8 ± 0.6 | 1.4854 ± 0.00037 | 44.5 ± 1.8
298.15 K | 1266.5 ± 0.6 | 1.4836 ± 0.00037 | 44 ± 1.8
303.15 K | 1262 ± 0.7 | 1.4814 ± 0.00037 | 43.4 ± 1.7
308.15 K | 1257.6 ± 0.7 | 1.4796 ± 0.00037 | 42.8 ± 1.7
313.15 K | 1253.2 ± 0.7 | 1.478 ± 0.00037 | 42.2 ± 1.7
318.15 K | 1248.7 ± 0.7 | 1.4762 ± 0.00037 | 41.6 ± 1.7
323.15 K | 1244.2 ± 0.7 | 1.4744 ± 0.00037 | 41.1 ± 1.6
328.15 K | 1240.3 ± 0.7 | 1.4726 ± 0.00037 | 40.4 ± 1.6
